According to ChEMBL document CHEMBL4507319 (2021):

Assays:
Conditions in all cases: Compound concentration 1.0 uM
[1] = biological target: Activated CDC42 kinase 1 (Homo sapiens) (UniProt Q07912); assay: ACK1(h) Eurofins kinase panel
[2] = biological target: Serine/threonine-protein kinase Chk2 (Homo sapiens) (UniProt O96017); assay: CHK2(h) Eurofins kinase panel
[3] = biological target: Dual specificity tyrosine-phosphorylation-regulated kinase 1A (Homo sapiens) (UniProt Q13627); assay: DYRK1A(h) Eurofins kinase panel
[4] = biological target: Insulin receptor (Homo sapiens) (UniProt P06213); assay: IR(h), activated Eurofins kinase panel
Insulin receptor (Homo sapiens), sequence (P06213 28-758 limits assumed): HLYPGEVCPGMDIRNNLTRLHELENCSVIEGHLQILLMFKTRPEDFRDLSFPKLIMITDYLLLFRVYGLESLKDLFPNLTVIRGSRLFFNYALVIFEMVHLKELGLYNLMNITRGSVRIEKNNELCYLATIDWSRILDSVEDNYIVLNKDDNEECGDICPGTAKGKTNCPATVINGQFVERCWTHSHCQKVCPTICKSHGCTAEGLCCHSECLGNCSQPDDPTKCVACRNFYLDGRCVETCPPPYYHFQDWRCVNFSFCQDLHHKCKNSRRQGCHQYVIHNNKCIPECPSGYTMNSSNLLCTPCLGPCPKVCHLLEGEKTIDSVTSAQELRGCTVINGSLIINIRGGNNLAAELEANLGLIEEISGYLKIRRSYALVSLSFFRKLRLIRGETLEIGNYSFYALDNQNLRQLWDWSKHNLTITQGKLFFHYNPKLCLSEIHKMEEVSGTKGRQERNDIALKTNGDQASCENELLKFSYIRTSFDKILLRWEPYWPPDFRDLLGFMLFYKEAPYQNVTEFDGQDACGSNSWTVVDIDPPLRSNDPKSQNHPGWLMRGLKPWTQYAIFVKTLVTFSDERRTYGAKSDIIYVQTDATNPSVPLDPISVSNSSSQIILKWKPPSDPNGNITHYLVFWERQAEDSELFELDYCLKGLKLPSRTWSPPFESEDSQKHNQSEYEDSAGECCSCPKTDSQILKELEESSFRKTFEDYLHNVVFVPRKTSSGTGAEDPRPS
Insulin receptor (Homo sapiens), sequence (P06213 763-1382 limits assumed): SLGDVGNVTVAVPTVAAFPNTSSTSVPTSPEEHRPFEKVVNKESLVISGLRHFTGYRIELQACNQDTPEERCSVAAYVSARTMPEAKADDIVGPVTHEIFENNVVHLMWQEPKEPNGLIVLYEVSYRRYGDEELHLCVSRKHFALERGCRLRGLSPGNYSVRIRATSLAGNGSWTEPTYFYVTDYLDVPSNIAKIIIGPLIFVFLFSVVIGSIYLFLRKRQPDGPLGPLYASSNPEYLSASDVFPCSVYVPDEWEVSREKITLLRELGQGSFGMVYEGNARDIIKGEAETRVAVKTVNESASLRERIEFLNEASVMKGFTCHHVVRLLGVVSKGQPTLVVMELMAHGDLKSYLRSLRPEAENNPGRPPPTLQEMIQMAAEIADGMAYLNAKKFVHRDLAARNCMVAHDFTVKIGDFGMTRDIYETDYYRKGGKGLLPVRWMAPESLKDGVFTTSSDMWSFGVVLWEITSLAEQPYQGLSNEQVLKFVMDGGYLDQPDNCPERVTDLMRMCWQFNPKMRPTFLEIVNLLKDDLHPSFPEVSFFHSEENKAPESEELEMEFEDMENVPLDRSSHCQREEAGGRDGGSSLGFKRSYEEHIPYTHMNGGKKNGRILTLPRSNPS

[5] = biological target: T1, MAP/microtubule affinity-regulating kinase 4 (Homo sapiens) (UniProt Q96L34); assay: MARK4(h) Eurofins kinase panel
T1 sequence (whole entry): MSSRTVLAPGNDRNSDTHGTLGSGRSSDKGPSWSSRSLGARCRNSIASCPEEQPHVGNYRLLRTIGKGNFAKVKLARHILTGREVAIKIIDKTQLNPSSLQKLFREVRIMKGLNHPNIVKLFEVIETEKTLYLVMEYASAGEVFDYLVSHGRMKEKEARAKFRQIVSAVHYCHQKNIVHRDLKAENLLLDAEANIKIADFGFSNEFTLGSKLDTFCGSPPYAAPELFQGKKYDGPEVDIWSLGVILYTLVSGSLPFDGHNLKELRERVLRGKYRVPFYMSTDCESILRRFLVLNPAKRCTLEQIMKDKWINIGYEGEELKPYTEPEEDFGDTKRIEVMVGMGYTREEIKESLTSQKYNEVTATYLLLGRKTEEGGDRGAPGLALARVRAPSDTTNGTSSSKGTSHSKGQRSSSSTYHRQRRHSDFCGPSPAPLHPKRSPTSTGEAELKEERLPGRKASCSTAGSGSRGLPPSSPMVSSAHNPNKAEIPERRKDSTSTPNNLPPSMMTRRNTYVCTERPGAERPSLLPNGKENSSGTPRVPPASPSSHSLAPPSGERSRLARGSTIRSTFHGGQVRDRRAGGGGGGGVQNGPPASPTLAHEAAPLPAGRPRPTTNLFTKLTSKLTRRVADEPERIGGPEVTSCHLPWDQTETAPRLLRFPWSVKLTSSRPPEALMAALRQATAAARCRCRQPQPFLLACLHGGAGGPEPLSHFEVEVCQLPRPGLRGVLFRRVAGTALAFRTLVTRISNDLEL

[6] = biological target: SRSF protein kinase 3 (Homo sapiens) (UniProt Q9UPE1); assay: MSSK1(h) Eurofins kinase panel
SRSF protein kinase 3 (Homo sapiens), sequence (Q9UPE1 whole entry): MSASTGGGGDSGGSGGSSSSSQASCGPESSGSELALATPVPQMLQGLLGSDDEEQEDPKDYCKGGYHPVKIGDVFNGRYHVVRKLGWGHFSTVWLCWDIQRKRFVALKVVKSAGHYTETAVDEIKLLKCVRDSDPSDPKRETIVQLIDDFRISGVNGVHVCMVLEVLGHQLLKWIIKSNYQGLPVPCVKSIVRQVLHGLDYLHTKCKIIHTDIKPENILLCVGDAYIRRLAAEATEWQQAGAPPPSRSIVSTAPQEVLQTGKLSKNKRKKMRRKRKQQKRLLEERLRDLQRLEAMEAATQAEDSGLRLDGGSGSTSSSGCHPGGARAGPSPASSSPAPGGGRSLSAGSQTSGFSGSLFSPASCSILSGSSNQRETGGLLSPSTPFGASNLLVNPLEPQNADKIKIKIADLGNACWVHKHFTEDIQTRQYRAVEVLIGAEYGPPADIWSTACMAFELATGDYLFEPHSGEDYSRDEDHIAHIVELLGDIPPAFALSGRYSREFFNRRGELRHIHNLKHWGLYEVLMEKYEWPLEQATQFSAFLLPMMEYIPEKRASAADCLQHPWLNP

[7] = biological target: T2, Serine/threonine-protein kinase Nek1 (Homo sapiens) (UniProt Q96PY6); assay: NEK1(h) Eurofins kinase panel
T2 sequence (whole entry): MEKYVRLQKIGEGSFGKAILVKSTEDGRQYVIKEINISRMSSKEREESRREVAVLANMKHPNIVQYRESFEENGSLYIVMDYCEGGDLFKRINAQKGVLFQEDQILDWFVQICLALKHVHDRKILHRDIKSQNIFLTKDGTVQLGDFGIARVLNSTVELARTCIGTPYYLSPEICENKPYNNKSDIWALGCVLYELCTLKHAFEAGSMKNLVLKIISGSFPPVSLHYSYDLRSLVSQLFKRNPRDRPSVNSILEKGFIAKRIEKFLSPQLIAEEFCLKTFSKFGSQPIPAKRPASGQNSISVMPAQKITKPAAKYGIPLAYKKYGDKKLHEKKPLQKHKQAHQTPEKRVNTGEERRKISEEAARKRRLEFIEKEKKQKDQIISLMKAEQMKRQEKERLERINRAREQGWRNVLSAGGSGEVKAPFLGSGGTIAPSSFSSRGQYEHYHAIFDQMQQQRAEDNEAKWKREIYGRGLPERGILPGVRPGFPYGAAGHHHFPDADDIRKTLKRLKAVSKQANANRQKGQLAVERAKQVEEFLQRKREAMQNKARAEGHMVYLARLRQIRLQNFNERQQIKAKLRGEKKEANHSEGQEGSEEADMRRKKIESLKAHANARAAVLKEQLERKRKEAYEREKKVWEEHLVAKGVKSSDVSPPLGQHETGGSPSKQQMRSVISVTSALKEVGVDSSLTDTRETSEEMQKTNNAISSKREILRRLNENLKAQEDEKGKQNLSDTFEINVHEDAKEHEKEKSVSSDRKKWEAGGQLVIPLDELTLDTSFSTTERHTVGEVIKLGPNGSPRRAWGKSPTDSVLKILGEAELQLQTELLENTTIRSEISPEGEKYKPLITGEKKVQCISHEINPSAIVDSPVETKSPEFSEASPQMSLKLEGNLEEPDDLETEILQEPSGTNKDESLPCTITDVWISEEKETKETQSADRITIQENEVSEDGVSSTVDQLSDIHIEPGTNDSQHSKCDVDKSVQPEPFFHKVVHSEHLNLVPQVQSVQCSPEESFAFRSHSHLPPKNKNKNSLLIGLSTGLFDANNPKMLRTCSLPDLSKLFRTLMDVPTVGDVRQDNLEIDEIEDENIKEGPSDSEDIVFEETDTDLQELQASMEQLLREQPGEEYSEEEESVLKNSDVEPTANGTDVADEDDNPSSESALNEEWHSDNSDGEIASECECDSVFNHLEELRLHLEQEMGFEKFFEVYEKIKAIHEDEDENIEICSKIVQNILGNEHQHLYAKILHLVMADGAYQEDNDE

[8] = biological target: T3, Mitogen-activated protein kinase 13 (Homo sapiens) (UniProt O15264); assay: SAPK4(h) Eurofins kinase panel
T3 sequence (whole entry): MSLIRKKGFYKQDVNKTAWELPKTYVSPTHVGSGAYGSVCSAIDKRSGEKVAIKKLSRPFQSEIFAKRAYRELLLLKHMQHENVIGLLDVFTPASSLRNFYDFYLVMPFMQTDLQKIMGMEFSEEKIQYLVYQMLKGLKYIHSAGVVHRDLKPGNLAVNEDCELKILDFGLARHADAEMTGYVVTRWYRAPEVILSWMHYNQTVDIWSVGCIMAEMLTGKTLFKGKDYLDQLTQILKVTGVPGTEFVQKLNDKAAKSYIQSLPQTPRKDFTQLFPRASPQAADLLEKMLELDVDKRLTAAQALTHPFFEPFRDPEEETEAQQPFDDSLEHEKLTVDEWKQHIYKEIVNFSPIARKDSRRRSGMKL

[9] = biological target: Wee1-like protein kinase (Homo sapiens) (UniProt P30291); assay: Wee1(h) Eurofins kinase panel
Wee1-like protein kinase (Homo sapiens), sequence (P30291 whole entry, looked up): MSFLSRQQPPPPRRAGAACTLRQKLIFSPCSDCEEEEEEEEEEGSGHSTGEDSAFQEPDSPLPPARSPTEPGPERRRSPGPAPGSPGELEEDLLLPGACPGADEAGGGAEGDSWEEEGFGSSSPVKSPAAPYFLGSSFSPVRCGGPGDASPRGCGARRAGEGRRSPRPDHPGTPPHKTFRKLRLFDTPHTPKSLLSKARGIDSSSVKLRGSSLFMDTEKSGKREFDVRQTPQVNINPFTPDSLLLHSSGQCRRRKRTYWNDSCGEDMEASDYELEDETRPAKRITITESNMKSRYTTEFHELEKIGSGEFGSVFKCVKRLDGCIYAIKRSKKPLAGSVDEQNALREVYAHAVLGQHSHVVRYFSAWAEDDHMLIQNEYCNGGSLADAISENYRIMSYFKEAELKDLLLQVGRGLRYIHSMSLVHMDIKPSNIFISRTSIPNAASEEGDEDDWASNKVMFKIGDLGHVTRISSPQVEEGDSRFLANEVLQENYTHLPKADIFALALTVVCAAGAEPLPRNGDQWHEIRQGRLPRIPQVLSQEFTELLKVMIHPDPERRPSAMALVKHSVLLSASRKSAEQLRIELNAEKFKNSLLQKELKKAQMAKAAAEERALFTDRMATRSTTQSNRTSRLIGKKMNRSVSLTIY

[10] = biological target: Wee1-like protein kinase 2 (Homo sapiens) (UniProt P0C1S8); assay: Wee1B(h) Eurofins kinase panel
Wee1-like protein kinase 2 (Homo sapiens), sequence (P0C1S8 whole entry, looked up): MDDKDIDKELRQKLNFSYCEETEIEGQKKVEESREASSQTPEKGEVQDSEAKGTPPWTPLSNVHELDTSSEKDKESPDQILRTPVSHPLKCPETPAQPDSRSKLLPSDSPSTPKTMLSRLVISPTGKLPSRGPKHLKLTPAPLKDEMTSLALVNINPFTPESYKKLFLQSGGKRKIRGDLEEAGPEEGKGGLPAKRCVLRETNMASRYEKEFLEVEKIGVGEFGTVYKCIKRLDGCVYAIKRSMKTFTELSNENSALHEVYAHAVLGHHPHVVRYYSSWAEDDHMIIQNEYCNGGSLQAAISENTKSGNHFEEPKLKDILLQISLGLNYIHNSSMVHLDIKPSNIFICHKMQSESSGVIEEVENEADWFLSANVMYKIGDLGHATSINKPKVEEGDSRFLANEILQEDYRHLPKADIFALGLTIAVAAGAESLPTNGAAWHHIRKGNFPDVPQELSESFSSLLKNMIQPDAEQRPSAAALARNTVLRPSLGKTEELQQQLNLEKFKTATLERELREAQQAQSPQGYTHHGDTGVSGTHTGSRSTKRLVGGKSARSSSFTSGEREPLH

[11] = biological target: DNA-dependent protein kinase catalytic subunit (Homo sapiens) (UniProt P78527); assay: DNA-PK(h) Eurofins kinase panel

Measured: % residual kinase activity

Activated CDC42 kinase 1 (Homo sapiens), sequence (Q07912 whole entry, looked up): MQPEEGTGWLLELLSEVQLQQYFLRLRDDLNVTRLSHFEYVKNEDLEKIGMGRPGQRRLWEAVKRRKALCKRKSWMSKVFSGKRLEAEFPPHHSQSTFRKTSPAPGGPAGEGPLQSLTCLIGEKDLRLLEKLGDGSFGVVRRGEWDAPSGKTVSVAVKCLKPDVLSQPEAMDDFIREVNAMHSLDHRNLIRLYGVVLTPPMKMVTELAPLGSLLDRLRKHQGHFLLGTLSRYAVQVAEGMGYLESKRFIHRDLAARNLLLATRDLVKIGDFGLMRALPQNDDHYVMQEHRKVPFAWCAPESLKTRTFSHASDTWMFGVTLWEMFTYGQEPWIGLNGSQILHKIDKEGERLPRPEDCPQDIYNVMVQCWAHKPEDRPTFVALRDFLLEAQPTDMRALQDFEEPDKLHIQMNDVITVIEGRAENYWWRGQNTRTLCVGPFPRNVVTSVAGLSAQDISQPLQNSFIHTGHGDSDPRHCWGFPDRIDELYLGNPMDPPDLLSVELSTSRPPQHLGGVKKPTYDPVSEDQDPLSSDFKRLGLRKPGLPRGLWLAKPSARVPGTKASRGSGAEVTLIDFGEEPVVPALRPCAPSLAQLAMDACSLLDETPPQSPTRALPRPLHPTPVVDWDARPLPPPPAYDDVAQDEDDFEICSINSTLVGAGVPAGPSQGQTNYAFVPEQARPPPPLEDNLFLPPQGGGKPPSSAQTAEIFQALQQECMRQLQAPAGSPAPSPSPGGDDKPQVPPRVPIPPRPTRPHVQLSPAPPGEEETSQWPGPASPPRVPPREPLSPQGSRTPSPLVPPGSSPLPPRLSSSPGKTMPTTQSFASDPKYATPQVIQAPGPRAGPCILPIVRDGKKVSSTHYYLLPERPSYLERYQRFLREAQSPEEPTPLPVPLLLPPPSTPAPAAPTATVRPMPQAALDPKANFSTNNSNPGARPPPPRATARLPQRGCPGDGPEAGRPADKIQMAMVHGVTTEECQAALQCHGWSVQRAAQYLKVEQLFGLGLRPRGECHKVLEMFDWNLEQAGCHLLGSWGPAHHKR
Serine/threonine-protein kinase Chk2 (Homo sapiens), sequence (O96017 whole entry): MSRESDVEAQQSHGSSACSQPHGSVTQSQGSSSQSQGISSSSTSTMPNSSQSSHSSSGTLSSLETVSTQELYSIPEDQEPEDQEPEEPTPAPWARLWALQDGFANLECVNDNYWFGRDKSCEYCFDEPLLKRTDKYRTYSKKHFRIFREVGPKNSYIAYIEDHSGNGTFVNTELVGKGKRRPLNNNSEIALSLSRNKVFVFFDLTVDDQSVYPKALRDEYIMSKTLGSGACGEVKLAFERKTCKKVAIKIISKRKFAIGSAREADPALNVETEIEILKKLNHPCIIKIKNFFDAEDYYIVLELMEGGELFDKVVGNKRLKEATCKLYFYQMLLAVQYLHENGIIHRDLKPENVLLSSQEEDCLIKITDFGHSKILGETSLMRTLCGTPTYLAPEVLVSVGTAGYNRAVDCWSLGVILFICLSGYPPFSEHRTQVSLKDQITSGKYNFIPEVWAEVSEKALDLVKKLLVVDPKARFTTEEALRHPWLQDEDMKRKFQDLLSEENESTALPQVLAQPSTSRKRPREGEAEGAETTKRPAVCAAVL

CCc1ccccc1C(=O)Nc1n[nH]c2c(C)c(F)c(C3C(C#N)=C(C)N(C)C(C)=C3C#N)cc12 [BAY-3827]
inactive: [1] 94% | [2] 100% | [3] 107% | [4] 89% | [5] 65% | [6] 39% | [7] 102% | [8] 111% | [9] 96% | [10] 101% | [11] 94%
